Results from patent US20100267561A1, “HERBICIDAL PYRIDAZINONE DERIVATIVES” (priority 2007, published 2010).
Read-outs that look alike come from different tables or passages of the source.

How the values were obtained:
Format in all cases: in vivo
[1] = system: barnyardgrass (Echinochloa crus-galli); test: Test A pre-/postemergence plant response; conditions: Echinochloa crus-galli, 240 h, read-out: Plant response rating, Barnyardgrass; for pest or weed control at 125 g/ha: 125 g ai/ha; for pest or weed control at 500 g/ha: 500 g ai/ha
In short: (§1)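 Ratings are visual, 0–100, where 100 means complete control and 0 no effect, taken roughly 10 days after treatment by comparison with untreated controls. Formulation: non-phytotoxic solvent mixture with surfactant.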

corn (Zea mays) = test: Test A pre-/postemergence plant response; conditions: Zea mays, 240 h; for Corn plant response rating (crop injury, 0 = no effect, 100 = complete kill) at 125 g/ha: 125 g ai/ha; for Corn plant response rating (crop injury, 0 = no effect, 100 = complete kill) at 500 g/ha: 500 g ai/ha
In short: as §1

[2] = system: giant foxtail (Setaria faberi); test: Test A pre-/postemergence plant response; conditions: Setaria faberi, 240 h, read-out: Plant response rating, Foxtail, Giant; for pest or weed control at 125 g/ha: 125 g ai/ha; for pest or weed control at 500 g/ha: 500 g ai/ha
In short: as §1

[3] = system: large crabgrass (Digitaria sanguinalis); test: Test A pre-/postemergence plant response; conditions: Digitaria sanguinalis, 240 h, read-out: Plant response rating, Crabgrass, Large; for pest or weed control at 125 g/ha: 125 g ai/ha; for pest or weed control at 500 g/ha: 500 g ai/ha
In short: as §1

[4] = system: pigweed (Amaranthus retroflexus); test: Test A pre-/postemergence plant response; conditions: Amaranthus retroflexus, 240 h, read-out: Plant response rating, Pigweed; for pest or weed control at 125 g/ha: 125 g ai/ha; for pest or weed control at 500 g/ha: 500 g ai/ha
In short: as §1

[5] = system: wheat (Triticum aestivum); test: Test A pre-/postemergence plant response; conditions: Triticum aestivum, 240 h, read-out: Plant response rating, Wheat; for plant injury at 125 g/ha: 125 g ai/ha; for plant injury at 500 g/ha: 500 g ai/ha
In short: as §1

[6] = system: barnyardgrass (Echinochloa crus-galli); test: Test B flooded paddy test plant response; conditions: Echinochloa crus-galli, read-out: Plant response rating, Barnyardgrass
In short: (§2)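 2-leaf plants; pots flooded 3 cm above soil; compound added to paddy water; depth maintained. Greenhouse 13–15 d. Visual rating vs controls, 0 (no effect) to 100 (complete control); dash = no result.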

[7] = system: ducksalad (Heteranthera limosa); test: Test B flooded paddy test plant response; conditions: Heteranthera limosa, read-out: Plant response rating, Ducksalad
In short: as §2

rice (Oryza sativa) = test: Test B flooded paddy test plant response; conditions: Oryza sativa, read-out: Plant response rating, Rice
In short: as §2

[8] = system: umbrella sedge (Cyperus difformis); test: Test B flooded paddy test plant response; conditions: Cyperus difformis, read-out: Plant response rating, Sedge, Umbrella
In short: as §2

[9] = post-emergence, Postemergence, 0 to 100 scale, 0 no effect, 100 complete control
[10] = pre-emergence, Preemergence, 0 to 100 scale (0 no effect, 100 complete control)
[11] = Flood (flooded paddy test), 62 g ai/ha, scale 0 to 100, 0 no effect, 100 complete control
[12] = Flood (flooded paddy test), 125 g ai/ha, scale 0 to 100, 0 no effect, 100 complete control
[13] = Flood (flooded paddy test), 250 g ai/ha, scale 0 to 100, 0 no effect, 100 complete control
[14] = Flood, 31 g ai/ha, scale 0 to 100

`Cc1cc(-c2ccc(Br)cc2)nn1-c1c(O)cnn(C2CCCCO2)c1=O` (stereo not shown) [Compound 77, 4-[3-(4-bromophenyl)-5-methyl-1H-pyrazol-1-yl]-5-hydroxy-2-(tetrahydro-2H-pyran-2-yl)-3(2H)-pyridazinone] showed a pest or weed control at 125 g/ha [1, 9] of 50%, a pest or weed control at 500 g/ha [1, 9] of 100% and a pest or weed control at 125 g/ha [1, 10] of 0%. For the same compound, the pest or weed control at 500 g/ha [1, 10] was 100%, the Corn plant response rating (crop injury, 0 = no effect, 100 = complete kill) at 125 g/ha (corn (Zea mays); [9]) was 80% and the Corn plant response rating (crop injury, 0 = no effect, 100 = complete kill) at 500 g/ha (corn (Zea mays); [9]) was 100%. The Corn plant response rating (crop injury, 0 = no effect, 100 = complete kill) at 125 g/ha (corn (Zea mays); [10]) was 30%, the Corn plant response rating (crop injury, 0 = no effect, 100 = complete kill) at 500 g/ha (corn (Zea mays); [10]) was 80% and the pest or weed control at 125 g/ha [2, 9] was 80%. It also gave a pest or weed control at 500 g/ha [2, 9] of 100%, a pest or weed control at 125 g/ha [2, 10] of 30% and a pest or weed control at 500 g/ha [2, 10] of 100%. It also gave a pest or weed control at 125 g/ha [3, 9] of 70%, a pest or weed control at 500 g/ha [3, 9] of 100% and a pest or weed control at 125 g/ha [3, 10] of 10%. The pest or weed control at 500 g/ha [3, 10] was 100%, the pest or weed control at 125 g/ha [4, 9] was 0% and the pest or weed control at 500 g/ha [4, 9] was 0%. For the same compound, the pest or weed control at 125 g/ha [4, 10] was 0%, the pest or weed control at 500 g/ha [4, 10] was 0% and the plant injury at 125 g/ha [5, 9] was 70%. It also gave a plant injury at 500 g/ha [5, 9] of 90%, a plant injury at 125 g/ha [5, 10] of 0% and a plant injury at 500 g/ha [5, 10] of 80%. The pest or weed control at 62 g/ha [6, 11] was 0%, the pest or weed control at 125 g/ha [6, 12] was 0% and the pest or weed control at 250 g/ha [6, 13] was 0%. It also gave a pest or weed control at 31 g/ha [6, 14] of 0%, a pest or weed control at 62 g/ha [7, 11] of 0% and a pest or weed control at 125 g/ha [7, 12] of 0%. For the same compound, the pest or weed control at 250 g/ha [7, 13] was 0%, the pest or weed control at 31 g/ha [7, 14] was 0% and the plant injury at 62 g/ha (rice (Oryza sativa); [11]) was 0%. The plant injury at 125 g/ha (rice (Oryza sativa); [12]) was 0%, the plant injury at 250 g/ha (rice (Oryza sativa); [13]) was 0% and the plant injury at 31 g/ha (rice (Oryza sativa); [14]) was 0%. For the same compound, the pest or weed control at 62 g/ha [8, 11] was 0%, the pest or weed control at 125 g/ha [8, 12] was 0% and the pest or weed control at 250 g/ha [8, 13] was 0%. It also gave a pest or weed control at 31 g/ha [8, 14] of 0%.
